Here are results for 26 compounds from paper PMC12648864 (Biology of Sex Differences, 2025).

This test deals with plasma metabolites. The format is in vivo, rat. How it is done: Male and female SD rats were divided into experimental and control groups. Each group contained 10 male and 10 female rats. […] Blood was collected from orbital vein into sodium heparin-coated centrifugal tubes pre-chilled at 4 ℃, at 30 min, 2 h, and 12 h post-administration respectively. Plasma was separated by gentle inversion, immediately quenched in liquid nitrogen, and centrifuged at 1500 g for 10 min at 4 ℃. The prepared plasma was stored at − 80 ℃ until LC-MS/MS analysis.
The stored plasma samples were thawed at 4 °C, and 100 µL of each sample was transferred to a centrifuge tube. Proteins were precipitated using 1 mL of methanol/acetonitrile/water solution (2:2:1, v: v:v) at 4 °C. After vortex mixing, the sample mixture was sonicated for 30 min (ice was used to maintain the low-temperature conditions). The sonicated mixture was allowed to stand for 10 min at […], then centrifuged at 14,000 g for 20 min at 4 °C. The resulting supernatant was collected and dried under vacuum. For instrumental analysis, the dried supernatant was reconstituted in 100 µL of aqueous acetonitrile solution, vortexed, then centrifuged at 14,000 g for 15 min at 4 °C. To ensure instrument stability and data reliability, quality control samples were prepared and analyzed using random sampling.
Chromatographic conditions: separation was performed in a Waters Acquity UPLC BEH Amide column (1.7 μm, 2.1 × 100 mm). The column temperature was 25 ℃ and flow rate was 0.5 mL/min. The injection volume was 2 µL, with the mobile phases consisting of A: water + 25 mM ammonium acetate + 25 mM ammonia, and B: acetonitrile. The gradient elution program was as follows: 0–0.5 min, 95% B; 0.5–7 min, 95%−65% B; 7–8 min, 65%−40% B; 8–9 min, 40% B; 9–9.1 min, 40%−95%B; 9.1–12 min, 95%B.
MS conditions: Detection was carried out using electrospray ionization in both positive and negative ion modes. The following parameters were used: spray voltage, ± 5500 V; ionization temperature, 600 ℃; nebulization air pressure, 60 psi; auxiliary air pressure, 60 psi; air curtain air pressure, 30 psi; time-of-flight MS scanning range (m/z), 60–1000 Da; product ion scanning range, 25–1000 Da. The secondary mass spectra were acquired using information-dependent acquisition in high-resolution mode. The cone bore voltage was ± 60 V (positive and negative modes) and collision energy was 35 ± 15 eV.
Orthogonal partial least squares-discriminant analysis (OPLS-DA) were computed for control female and male rats. […] Differential metabolites were identified using stringent criteria: variable importance in projection (VIP) scores > 1 and statistically significant from t-test.
OPLS-DA scores were calculated for the control group and experimental male rats. […] Differential metabolites were identified using stringent selection criteria: VIP scores > 1.0 and P < 0.05, as derived from the OPLS-DA model.
We performed pairwise comparisons of metabolites between male and female rats in the experimental and control groups. […] We performed KEGG enrichment analysis on metabolites that differed between male and female rats in the experimental group (Fig. 6G-I).

The mark [1] stands for this setting: male rats, test (TM8) vs control (BM8), 12 hours, plasma.
Where [2] appears, read: male rats, test (TM3) vs control (BM3), 30 minutes, plasma.
[3] abbreviates: female rats, 30 minutes, test group (TF3, strychnine) vs control group (BF3), plasma metabolite.
Where [4] appears, read: female rats, 2 hour, test group (TF5, strychnine) vs control group (BF5), plasma metabolite.
The mark [5] stands for this setting: female rats, 12 hour, test group (TF8, strychnine) vs control group (BF8), plasma metabolite.
Where [6] appears, read: male rats, test (TM5) vs control (BM5), 2 hours, plasma.

Values joined by “and” are separate entries in the source; they are usually repeats but may differ in a detail not shown here. Identical values can stand only once. Like-named read-outs stand apart in the source and are kept apart here.

With `CCCCCCCCCCCCC/C=C/[C@@H](O)[C@H](CO)NC(=O)CCCCCCCCCCCCCCC` [N-Palmitoylsphingosine], the Fold change under setting [1] is on record as 1.476. Turning to `CC(=O)OC[C@H](N)C(=O)O` [O-Acetyl-L-serine], under setting [2], the Fold change was determined as 0.6094. Consider `O=C(O)[C@H]1CCCCN1` [D-Pipecolinic acid], for which the Fold change by setting is: under setting [3], 2.231; under setting [4], 1.817. With `O=C1CCCCCN1` [epsilon-Caprolactam], the Fold change is, setting by setting: under setting [3], 1.263; under setting [5], 0.793; under setting [6], 0.6921. For `CCCCCCCC/C=C\CCCCCCCC(=O)OC[C@H](COP(=O)([O-])OCC[N+](C)(C)C)OC(=O)CCCCCCC/C=C\CCCCCCCC`, the Fold change runs as follows: under setting [3], 0.7409; under setting [2], 1.344. As to `COc1ccc(-c2cc(=O)c3c(OC)c(OC)c(OC)c(OC)c3o2)cc1` [Tangeritin], the Fold change is, setting by setting: under setting [4], 3.045; under setting [5], 9.489; under setting [1], 0.02313. For the compound `C[n+]1cccc(C(N)=O)c1` [1-Methylnicotinamide], under setting [6], the Fold change is reported as 1.347. As for `CSC[C@H]1O[C@@H](n2cnc3c(N)ncnc32)[C@H](O)[C@@H]1O` [S-Methyl-5'-thioadenosine], the Fold change under setting [1] is reported as 0.6708. Consider `CCCCC/C=C\C/C=C\CCCCCCCC(=O)OCC(O)CO` (racemic) [MG(18:2(9Z,12Z)/0:0/0:0)[rac]], for which the Fold change under setting [2] amounted to 0.8489. With `CCCCCCCCCCCCCCC[C@@H](O)[C@@H](N)CO` [Sphinganine], under setting [3], the Fold change is on record as 1.985. As for `CCCCCCCCCCCCC/C=C/[C@@H](O)[C@H](COP(=O)([O-])OCC[N+](C)(C)C)NC(=O)CCCCCCCCCCCCCCCCC` [Sphingomyelin (d18:1/18:0)], the Fold change (rat, in vivo) was 1.142 and 1.189. `CC(C)CCC[C@@H](C)[C@H]1CC[C@H]2C3=CC[C@H]4C[C@@H](O)CC[C@]4(C)[C@H]3CC[C@]12C` [Lathosterol]: the Fold change under setting [3] amounted to 2.481, the Fold change under setting [5] was 0.602 and the Fold change under setting [1] was determined as 3.049.

In the case of `CCCCCCCCCCCCCCCC(=O)OCC(O)CO` (stereo not shown) [1-Palmitoylglycerol], the Fold change under setting [3] turned out to be 0.3279, the Fold change under setting [5] is on record as 1.171 and the Fold change under setting [6] is listed as 0.6081. For the compound `C=C1CC[C@H](O)C/C1=C/C=C1\CCC[C@]2(C)[C@@H]([C@H](C)CCCC(C)C)CC[C@@H]12` [Cholecalciferol (Vitamin D3)], the Fold change under setting [3] was found to be 1.921 and the Fold change under setting [6] is recorded as 1.578. In the case of `CCCCCCCC/C=C\CCCCCCCC(=O)OC[C@@H](O)COP(=O)([O-])OCC[N+](C)(C)C` [1-Oleoyl-sn-glycero-3-phosphocholine], the Fold change under setting [3] is recorded as 0.8445. As to `NC(N)=O` [Urea], the Fold change under setting [4] is listed as 1.116. Take `CN(C)C(N)=NCCC[C@H](N)C(=O)O` [NG,NG-dimethyl-L-arginine(ADMA)]: under setting [2], the Fold change came to 0.5058. Consider `CCCCCCCCCCCCCCCCCC(=O)OC[C@@H](O)COP(=O)([O-])OCC[N+](C)(C)C` [1-Stearoyl-sn-glycerol 3-phosphocholine], for which the Fold change turned out to be 0.8936 under setting [2] and 0.2224 under setting [1]. Turning to `CCCCCCCCCCCCCCCC(=O)O[C@H](CC(=O)[O-])C[N+](C)(C)C` [L-Palmitoylcarnitine], the Fold change is, setting by setting: under setting [3], 2.52; under setting [4], 1.713. `CCCCCCCCCCCCCCCCSC[C@H](COP(=O)(O)OCC[N+](C)(C)C)NC(=O)CCCCCCCCCCCCCCC` [Thioetheramide-PC]: the Fold change was 1.1574 under setting [5] and 0.7991 under setting [1]. In the case of `O=C(O)[C@@H]1CCCCN1` [L-Pipecolic acid], the Fold change is on record as 0.7035 under setting [3], 1.162 under setting [4] and 1.276 under setting [5]. Turning to `CCCC[C@H](N)C(=O)O` [L-Norleucine], the Fold change runs as follows: under setting [3], 0.6394; under setting [4], 1.28; under setting [5], 1.298; under setting [1], 0.6711. In the case of `CCCCCCCCCCCCCCCC(=O)OC[C@@H](O)COP(=O)([O-])OCC[N+](C)(C)C` [1-Palmitoyllysophosphatidylcholine], the Fold change under setting [6] worked out at 1.155. As to `CCCCCCCCCCCCCC(=O)OC[C@@H](O)COP(=O)([O-])OCC[N+](C)(C)C` [1-Myristoyl-sn-glycero-3-phosphocholine], the Fold change is, setting by setting: under setting [3], 0.7956; under setting [4], 0.6202; under setting [5], 0.767; under setting [2], 1.568; under setting [1], 1.421. On to `CCCCCCCCCCCCCCCC(=O)OC[C@H](COP(=O)([O-])OCC[N+](C)(C)C)OC(=O)CCCCCCCCCCCCCCC` [PC(16:0/16:0)], for which the Fold change under setting [1] is 0.7843.

Turning to `CCCCCCCC/C=C\CCCCCCCC(=O)O[C@H](COC(=O)CCCCCCCCCCCCCCCCC)COP(=O)([O-])OCC[N+](C)(C)C`, the Fold change under setting [2] is given as 0.7683.
